From patent US20230105212A1, “BIPHENYL DERIVATIVE INHIBITOR, PREPARATION METHOD THEREFOR AND USE THEREOF” (SHANGHAI HANSOH BIOMEDICAL CO., LTD., priority 2020, published 2023)
Where two headings read alike, the source gives them in different places.

How the values were obtained:
human PD-1/PD-L1 binding = biological target: T1, human PD-1/PD-L1 binding (Homo sapiens, UniProt Q9NZQ7); experiment: Inhibition of human PD-1/PD-L1 binding (TR-FRET/HTRF)
T1 construct: PD-L1-His protein (19 to 238 amino acids) (Abcam #ab167713); purchased Abcam (PD-L1-His); R&D (PD-1-Fc) ab167713; 1086-PD
Outline: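 PD-L1-His (aa 19–238, diluted to 10 nM) and PD-1-Fc (aa 25–167, diluted to 20 nM) incubated with compounds (10 μM or 1 μM top, 3-fold, 11 doses) 60 min at room temperature, then anti-6HIS Eu cryptate/anti-human IgG-XL665 added for 3 h RT or overnight 4 °C. HTRF 665/620 nm ratio gave inhibition and IC50.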

[1] = biological target: T2, PD-L1 protein on the surface of MC38-hPDL1 tumor cells (Homo sapiens, UniProt Q9NZQ7); experiment: Induction of endocytosis of PD-L1 on the surface of tumor cells (flow cytometry); format: cell-based; settings: for Emax: MC38-hPDL1 cells, read-out: MC38 maximum endocytosis rate
T2 construct: expressed in transfected cells; host or cells: MC38-hPDL1 (mouse colon cancer cells)
Outline: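 MC38-hPDL1 mouse colon cancer cells overexpressing human PD-L1 were exposed to compound dilutions for 16 h at 37 °C. Surface PD-L1 was then stained with PE anti-human CD274 for 30 min at room temperature and measured by flow cytometry. Endocytosis rate versus concentration was fitted by nonlinear regression to give IC50.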

[2] = Pharmacokinetics test in Balb/C mice; format: in vivo; settings: male, mouse, po, p.o. 5 mg/kg, plasma; for MRT inf: read-out: Average residence time MRT0−∞; for AUC(0-t): read-out: Curve area AUC0−t; for Cmax: read-out: Drug concentration in plasma Cmax; for half-life: read-out: Half life t1/2 (converted); for Tmax: read-out: Peak time tmax
Procedure: Test Embodiment 6. Pharmacokinetics Test in Balb/C Mice
Taking Balb/C mice as the test animals, the pharmacokinetic behavior in the plasma of mice of the following compound embodiments was studied when orally administered at a dose of 5 mg/kg.
Balb/C Mouse 6/embodiment, male, Shanghai Jisijie Laboratory Animal Co., Ltd., animal production license number (SCXK (Shanghai) 2013-0006 No. 311620400001794).
0.5% HPMC (1% Tween 80), dissolved by sonication, to prepare a clear solution or a homogeneous suspension.
Balb/C mice, male; p.o. after overnight fasting, respectively, at a dose of 5 mg/kg, administered in a volume of 10 mL/kg.
Before and after administration of mice, at 0, 0.5, 1, 2, 4, 6, 8 and 24 hours, 0.1 mL of blood was collected from the orbit, placed in an EDTA-K2 test tube, and centrifuged at 6000 rpm at 4° C. for 6 min to separate the plasma, stored at −80° C.
1) 40 μL of plasma samples were added to 160 μL of acetonitrile for precipitation, mixed and centrifuged at 3500×g for 5 to 20 minutes.
2) 100 μL of the supernatant solution after treatment was taken for LC/MS/MS to analyze the concentration of the compounds to be tested.
2.6 Liquid Phase Analysis • Liquid phase condition: Shimadzu LC-20AD pump • MS conditions: AB Sciex API 4000 Mass Spectrometer • Chromatographic column: phenomenex Gemiu 5 μm C18 50×4.6 mm • Mobile phase: A solution was aqueous 0.1% formic acid solution, B solution was acetonitrile • Flow rate: 0.8 mL/min • Elution time: 0 to 4.0 minutes, the eluent was as follows:
The main parameters of pharmacokinetics were calculated with WinNonlin 8.2, and the results of the mice pharmacokinetic experiments were shown in the following table: […]

[3] = TR-FRET, PD-L1-His and PD-1-Fc, read-out: PD-1/PD-L1 binding IC50
[4] = inducing endocytosis of PD-L1, MC38-hPDL1 cells, 16 hours incubation, read-out: MC38 IC50

T2 sequence (Q9NZQ7 19-290): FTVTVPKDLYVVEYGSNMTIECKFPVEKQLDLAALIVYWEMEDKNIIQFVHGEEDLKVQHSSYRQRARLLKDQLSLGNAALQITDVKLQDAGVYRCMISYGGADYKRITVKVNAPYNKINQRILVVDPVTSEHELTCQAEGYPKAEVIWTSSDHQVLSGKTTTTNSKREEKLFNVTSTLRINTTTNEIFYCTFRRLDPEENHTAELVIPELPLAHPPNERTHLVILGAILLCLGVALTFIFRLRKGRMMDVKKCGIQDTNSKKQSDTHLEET
T1 sequence (Q9NZQ7 19-238): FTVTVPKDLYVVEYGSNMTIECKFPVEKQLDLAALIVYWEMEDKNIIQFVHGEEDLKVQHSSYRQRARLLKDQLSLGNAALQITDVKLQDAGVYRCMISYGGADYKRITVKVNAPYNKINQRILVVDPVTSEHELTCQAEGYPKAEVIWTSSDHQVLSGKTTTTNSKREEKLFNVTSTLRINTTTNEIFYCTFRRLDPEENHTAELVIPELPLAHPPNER

IC50 (human PD-1/PD-L1 binding; [3]) | Emax ([1]; 16 hours incubation) | IC50 [1, 4] | MRT inf [2] | AUC(0-t) [2] | Cmax [2] | half-life [2] | Tmax [2] | Structure (SMILES) | IC50 (human PD-1/PD-L1 binding) | IC50 [1]
8.1 nM | 96% | 0.7 nM | 22.5 h | 537 ng·h/mL | 31 ng/mL | 15.2 h | 2 h | COc1nc(-c2cccc(-c3cccc(NC(=O)c4nc5c(n4C)CCN(C)C5)c3Cl)c2Cl)ccc1CN1CC2(C1)CN(C(=O)C(C)C)C2 [Embodiment 186, N-(2,2′-Dichloro-3′-(5-((6-isobutyryl-2,6-diazaspiro[3.3]heptan-2-yl)methyl)-6-methoxypyridin-2-yl)-[1,1′-biphenyl]-3-yl)-1,5-dimethyl-4,5,6,7-tetrahydro-1H-imidazo[4,5-c]pyridine-2-carboxamide] |  | 
3.8 nM | 96% | 0.6 nM | 12.9 h | 887 ng·h/mL | 116 ng/mL | 9.5 h | 2 h | COc1nc(-c2cccc(-c3cccc(NC(=O)c4nc5c(n4C)CCN(C)C5)c3Cl)c2Cl)ccc1CN1CC(NC(C)=O)C1 [Embodiment 180, N-(3′-(5-((3-Acetylaminoazetidin-1-yl)methyl)-6-methoxypyridin-2-yl)-2,2′-dichloro-[1,1′-biphenyl]-3-yl)-1,5-dimethyl-4,5,6,7-tetrahydro-1H-imidazo[4,5-c]pyridine-2-carboxamide] |  | 
2 nM | 97% | 1 nM | 12.3 h | 677 ng·h/mL | 54 ng/mL | 8.4 h | 2 h | COc1nc(-c2cccc(-c3cccc(NC(=O)c4nc5c(n4C)CCN(C)C5)c3Cl)c2Cl)ccc1CN1CC2(CCC(=O)N2)C1 [Embodiment 126, N-(2,2′-Dichloro-3′-(6-methoxy-5-((6-carbonyl-2,5-diazaspiro[3.4]octan-2-yl)methyl)pyridin-2-yl)-[1,1′-biphenyl]-3-yl)-1,5-dimethyl-4,5,6,7-tetrahydro-1H-imidazo[4,5-c]pyridine-2-carboxamide] |  | 
2.4 nM | 94% | 2.3 nM |  |  |  |  |  | CNC(=O)CNCc1cnc(C(=O)Nc2cccc(-c3cccc(NC(=O)c4nc5c(n4C)CCN(C)C5)c3Cl)c2C)cc1OC [Embodiment 95, N-(2-Chloro-3′-(4-methoxy-5-(((2-(methylamino)-2-carbonylethyl)amino)methyl)picolinamido)-2′-methyl-[1,1′-biphenyl]-3-yl)-1,5-dimethyl-4,5,6,7-tetrahydro-1H-imidazo[4,5-c]pyridine-2-carboxamide] |  | 
2.4 nM | 94% |  | 16 h | 356 ng·h/mL | 24 ng/mL | 10.5 h | 1 h | COc1nc(-c2cccc(-c3cccc(NC(=O)c4nc5c(n4C)CCN(C)C5)c3Cl)c2Cl)ncc1CN1CC(CO)C1 [Embodiment 223, N-(2,2′-Dichloro-3′-(5-((3-(hydroxymethyl)azetidin-1-yl)methyl)-4-methoxypyrimidin-2-yl)-[1,1′-biphenyl]-3-yl)-1,5-dimethyl-4,5,6,7-tetrahydro-1H-imidazo[4,5-c]pyridine-2-carboxamide] |  | 
3 nM | 97% | 0.9 nM |  |  |  |  |  | COc1nc(-c2cccc(-c3cccc(NC(=O)c4nc5c(n4C)CCN(C)C5)c3Cl)c2Cl)ccc1CN1CC(O)(CO)C1 [Embodiment 173, N-(2,2′-Dichloro-3′-(5-((3-hydroxy-3-(hydroxymethyl)azetidin-1-yl)methyl)-6-methoxypyridin-2-yl)-[1,1-biphenyl]-3-yl)-1,5-dimethyl-4,5,6,7-tetrahydro-1H-imidazo[4,5-c]pyridine-2-carboxamide] |  | 
3.7 nM | 95% |  |  |  |  |  |  | COc1nc(-c2cccc(-c3cccc(NC(=O)c4nc5c(n4C)CCN(C)C5)c3Cl)c2Cl)cnc1CN1CC(NC(C)=O)C1 [Embodiment 218, N-(3′-(5-((3-Acetylaminoazetidin-1-yl)methyl)-6-methoxypyrazin-2-yl)-2,2′-dichloro-[1,1′-biphenyl]-3-yl)-1,5-dimethyl-4,5,6,7-tetrahydro-1H-imidazo[4,5-c]pyridine-2-carboxamide] |  | 
4.3 nM | 95% | 1.2 nM | 11.3 h | 596 ng·h/mL | 48 ng/mL | 9 h | 2 h | COc1nc(-c2cccc(-c3cccc(NC(=O)c4nc5c(n4C)CCN(C)C5)c3Cl)c2Cl)ccc1CNC1COC1 [Embodiment 114, N-(2,2′-Dichloro-3′-(6-methoxy-5-((oxetan-3-ylamino)methyl)pyridin-2-yl)-[1,1′-biphenyl]-3-yl)-1,5-dimethyl-4,5,6,7-tetrahydro-1H-imidazo[4,5-c]pyridine-2-carboxamide] |  | 
9 nM | 97% | 0.3 nM |  |  |  |  |  | COc1nc(-c2cccc(-c3cccc(NC(=O)c4nc5c(n4C)CCN(C)C5)c3Cl)c2Cl)ccc1CN1CC2(C1)CN(S(C)(=O)=O)C2 [Embodiment 192] |  | 
3 nM | 97% | 1 nM |  |  |  |  |  | COc1nc(-c2cccc(-c3cccc(NC(=O)c4nc5c(n4C)CCN(C)C5)c3Cl)c2Cl)ccc1CNC(CO)CO [Embodiment 174, N-(2,2′-Dichloro-3′-(5-(((1,3-dihydroxypropan-2-yl)amino)methyl)-6-methoxypyridin-2-yl)-[1,1′-biphenyl]-3-yl)-1,5-dimethyl-4,5,6,7-tetrahydro-1H-imidazo[4,5-c]pyridine-2-carboxamide] |  | 

Structure (SMILES) | IC50 (human PD-1/PD-L1 binding; [3]) | Emax ([1]; 16 hours incubation) | IC50 [1, 4] | MRT inf [2] | AUC(0-t) [2] | Cmax [2] | half-life [2] | Tmax [2] | IC50 (human PD-1/PD-L1 binding) | IC50 [1]
COc1nc(-c2cccc(-c3cccc(NC(=O)c4nc5c(n4C)CCN(C)C5)c3Cl)c2Cl)ccc1CN1CC2(CC(NC(C)=O)C2)C1 [Embodiment 234, N-(3′-(5-((6-Acetylamino-2-azaspiro[3.3]heptan-2-yl)methyl)-6-methoxypyridin-2-yl)-2,2′-dichloro-[1,1′-biphenyl]-3-yl)-1,5-dimethyl-4,5,6,7-tetrahydro-1H-imidazo[4,5-c]pyridine-2-carboxamide] | 2.5 nM | 97% |  | 20.8 h | 273 ng·h/mL | 25 ng/mL | 14.3 h | 2 h |  | 
COc1nc(-c2cccc(-c3cccc(NC(=O)c4nc5c(n4C)CCN(C)C5)c3Cl)c2Cl)ccc1CN1CC2(C1)CN(C(C)=O)C2 [Embodiment 123, N-(3′-(5-((6-Acetyl-2,6-diazaspiro[3.3]heptan-2-yl)methyl)-6-methoxypyridin-2-yl)-2,2′-dichloro-[1,1′-biphenyl]-3-yl)-1,5-dimethyl-4,5,6,7-tetrahydro-1H-imidazo[4,5-c]pyridine-2-carboxamide] | 1.6 nM | 97% | 0.4 nM | 12.8 h | 778 ng·h/mL | 59 ng/mL | 6.7 h | 4 h |  | 
CCC(=O)N1CC2(CN(Cc3ccc(-c4cccc(-c5cccc(NC(=O)c6nc7c(n6C)CCN(C)C7)c5Cl)c4Cl)nc3OC)C2)C1 [Embodiment 188, N-(2,2′-Dichloro-3′-(6-methoxy-5-((6-propionyl-2,6-diazaspiro[3.3]heptan-2-yl)methyl)pyridin-2-yl)-[1,1′-biphenyl]-3-yl)-1,5-dimethyl-4,5,6,7-tetrahydro-1H-imidazo[4,5-c]pyridine-2-carboxamide] |  | 97% |  |  |  |  |  |  | 6.3 nM | 0.4 nM
COc1nc(-c2cccc(-c3cccc(NC(=O)c4nc5c(n4C)CCN(C)C5)c3Cl)c2Cl)ccc1CN1CC2(COC2)C1 [Embodiment 124, N-(3′-(5-((2-Oxa-6-azaspiro[3.3]heptan-6-yl)methyl)-6-methoxypyridin-2-yl)-2,2′-dichloro-[1,1′-biphenyl]-3-yl)-1,5-dimethyl-4,5,6,7-tetrahydro-1H-imidazo[4,5-c]pyridine-2-carboxamide] | 3.8 nM | 96% | 0.4 nM | 25 h | 523 ng·h/mL | 36 ng/mL | 20 h | 4 h |  | 
